Experimental data from US20230088286A1, “USP7 INHIBITOR FOR USE IN THE TREATMENT OF CANCER” (ALMAC DISCOVERY LIMITED, priority 2020, published 2023).
Residues, ends and D or L forms follow the SMILES beside them. *: point of attachment. Cbz = O=C(OCc1ccccc1)*

Assays:
[1] = tested on: primary human fibroblasts (HDF) in hypoxic chamber; assay: sVEGF ELISA in primary fibroblasts under hypoxia; format: cell-based; settings: 48 h
From the text: FIG. 9: USP7 inhibition decreases VEGF levels in fibroblasts under hypoxia.
In response to wounding and during tumour growth, activated fibroblasts secrete synthesizers and modifiers of the ECM but also soluble angiogenic growth factors such as VEGF. Although VEGF gene expression can be controlled by multiple transcription factors, its major regulator is hypoxia-inducible factor 1 (HIF-1). HIF-1 mediates activation of VEGF transcription in response to hypoxia in solid tumours and in various malignant cell lines.
To assess its potency in a functional assay, HDF were treated with vehicle or various concentrations of USP7 inhibitor ADC-159 and incubated for 48 hours in hypoxic chamber. Cell culture supernatants were collected, and secreted VEGF was measured by ELISA.
(§1) For the co-culture experiments, 5×10^4 cancer cells were seeded in transwell in 0.5 mL complete growth medium and placed on the top of 0.1×10^6 fibroblasts plated in 12-well in 1 mL low serum growth media overnight. Following day cancer cells were washed with PBS and media replaced with reduced (1%) serum growth media. 0.5×10^6 PBMC were plated on top of fibroblasts, incubated for 45 min and activated with CD3 (1 μg/ml final concentration) and CD28 (5 μg/ml final concentration). […] Monoculture experiments, 0.1×10^6 cells were seeded in 12-well in 1 mL of complete growth media (cancer cells) or low serum growth media (fibroblasts) and incubated overnight. […] Afterwards, cell culture media was collected, cell debris were removed by centrifugation the concentration of VEGF in the cell culture supernatants was measured using the human/mouse VEGF immunoassay Quantikine ELISA kit (R&D systems, Minneapolis, Minn., USA) according to the manufacturer's instructions. For the intracellular VEGF detection, total protein concentration was determined by BCA (Pierce Chemical, USA) and VEGF levels determined using the same kit described above.

[2] = tested on: activated primary fibroblasts WI38, IMR90 and HDF; assay: sVEGF ELISA in activated primary fibroblasts; format: cell-based, human; settings: cancer cells, immortalized fibroblasts and FGF-2 activated primary fibroblasts, normoxia or hypoxia, 48 hours
From the text: FIG. 5: USP7 inhibition decreased secreted VEGF levels in activated fibroblasts. The USP7-mediated decrease in VEGF secretion observed in the co-cultures can be solely attributed to modulation of secreted VEGF in primary fibroblasts.
(FIG. 4). […] During the wound healing process or following stimulation by acute or chronic inflammatory signals, fibroblasts acquire an activated phenotype (referred to as myofibroblasts). Once activated, myofibroblasts proliferate and migrate, show contractile activity, exert physical forces to modify tissue architecture and become transcriptionally active leading to the secretion of cytokines, chemokines and extra-cellular matrix (ECM) components. In the tumour microenvironment, the majority of residual fibroblasts become activated and are known as cancer associated fibroblasts (CAF). In order to generate a myofibroblast phenotype, WI38, IMR90 and HDF were co-cultured with anti-CD3/anti-CD28 stimulated PBMCs or were stimulated by FGF-2 or TGFβ. […] The USP7 inhibitor-mediated decrease in VEGF secretion was only observed in primary fibroblasts; immortalized lung fibroblasts (WI38-VA13) were insensitive to USP7 inhibitor treatment, probably due to the destabilized p53 in the SV-40 immortalized fibroblasts (FIG. 7).
as §1

MMP-2 = MMP-2 in supernatants of HDF and HUVEC co-culture (Luminex); format: cell-based, human; settings: supernatants after 14 days
Protocol: Cell culture supernatants from tube formation were collected and MMP-2 levels were measured using Luminex®.
Next, the underlying mechanism of tube formation inhibition was investigated. […] To determine whether secretion of MMP-2 is modulated by USP7 inhibition, supernatants from HUVEC and HDF co-cultures were collected after 14 days.
(§2) Concentrations of MMP2 and MMP7 were determined in cell culture supernatants in triplicates using Luminex human cytokine/chemokine multiplex kits (Millipore, St. Charles, Mo., USA) according to the manufacturer's protocol.

MMP-7 = MMP-7 in supernatants of HDF invasion assay (Luminex); format: cell-based, human; settings: invading HDF, 96 hours
Protocol: The scratch wound cell invasion assay was used to measure the ability of primary human fibroblasts to invade through Matrigel® basement membrane. Cell culture supernatants from invasion assay were collected after 96 hours and MMP-7 levels were measured using Luminex®.
To further explore whether USP7 inhibition modulates MMP levels in invading fibroblasts, cell culture supernatants from HDF invasion assay were collected and presence of various MMP was detected using Luminex® Multiplex assay.
as §2

HIF-1α = assay: Ubiquitination assay, TUBE pull-down of polyubiquitinated HIF-1α; format: cell-based, human; settings: HDF, hypoxia; AD-04 1 μM, MG132 10 μM, 1 hour
Protocol: Given HIF-1α stability is known to be regulated at the protein level by ubiquitination, we investigated whether USP7 inhibition modulates HIF-1α polyubiquitination. […] Cells were harvested, lysed and polyubiquitinated proteins pulled down using two types of Tetra Ubiquitin Binding Entities (TUBES); with equal affinity for K48/K63 or 10 times more affinity for […]. Samples were analysed by immuno-blot using a HIF-1α antibody. […] These findings indicate that USP7 inhibition results in K48 polyubiquitination of HIF-1α and consequently, its proteasomal-mediated degradation.
Cells were lysed in a buffer containing 50 mM Tris-HCl, pH 7.5, 150 mM NaCl, 1 mM EDTA, 1% NP-40, 10% Glycerol, 50 mM NaF, 5 mM sodium pyrophosphate, 10 mM glycerol phosphate, 1 mM sodium orthovanadate, protease and phosphatase inhibitor tablet and 50 uM PR-619. Lysates were pre-cleared by centrifugation at 4° C. for 15 mins at 16,000× g and protein concentration determined using BCA method. 20 ul of samples was taken as input. Pre-cleared supernatant containing 0.5 mg of total protein was added to 20 ul equilibrated Agarose-TUBE 1 or TUBE 2 beads (Life Sensors) and incubated for 2 hours at 4° C. on a rocker platform. Beads were collected by low speed centrifugation (1000-5000× g, 4° C.) for 5 minutes and supernatant taken as FT. Beads were washed twice with 1 ml TBS-T (20 mM Tris-HCl, pH 8.0, 0.15M NaCl, 0.1% Tween-20) and collected by low speed centrifugation. Finally, beads were resuspended in 30 ul of SDS reducing sample buffer and boiled for 10 min at 95° C.

[3] = tested on: CT-26 cells in BALB/C mice; assay: CT-26 syngeneic tumour model (AD-04 study)
Protocol: FIG. 30: Effect of USP7 on the tumour microenvironment in vivo.
For subcutaneous tumour implantation, CT26 cells were injected subcutaneously (1×10^6cells in 200 μL of RPMI) in the right flank of 8- to 10-week-old BALB/c female mice. […] Tumour volume (in mm^3) was measured twice a week with a digital caliper and calculated by the following formula: volume=(width)^2×length/2. Body weight was measured twice a week. […]

Row | Compound | VEGF secretion under hypoxia [1] | secretion of VEGF (benchmark against MDM2 antagonists) [2] | further results
1 | CC1(C(=O)N2CCC(O)(Cn3cnc4c(cc(Cl)n4-c4ccc5c(c4)OCO5)c3=O)CC2)CC1 [ADC-556, 7-(Benzo[d][1,3]dioxol-5-yl)-6-chloro-3-((4-hydroxy-1-(1-methylcyclopropane-1-carbonyl)piperidin-4-yl)methyl)-3,7-dihydro-4H-pyrrolo[2,3-d]pyrimidin-4-One] | Comparable results |  | 
2 | CC1(C(=O)N2CCC(O)(Cn3cnc4c(cc(Cl)n4-c4ccc5c(c4)OCC5)c3=O)CC2)CC1 [ADC-198, 6-Chloro-7-(2,3-dihydrobenzofuran-6-yl)-3-[[4-hydroxy-1-(1-methylcyclopropanecarbonyl)-4-piperidyl]methyl]pyrrolo[2,3-d]pyrimidin-4-One] | Comparable results |  | 
3 | COc1ccc(C2=N[C@@H](c3ccc(Cl)cc3)[C@@H](c3ccc(Cl)cc3)N2C(=O)N2CCNC(=O)C2)c(OC(C)C)c1 [Nutlin-3a] |  | not able to modulate | 
4 | Avastin: anti-VEGF monoclonal antibody bevacizumab [reference compound] |  |  | MMP-2 levels (MMP-2): did not have significant impact; MMP-7 levels (MMP-7): did not have significant effect
5 | O=C(c1cnc(C2CC2)o1)N1CCC(O)(Cn2cnc3c(cc(Cl)n3-c3ccc4c(c3)OCC4)c2=O)CC1 [ADC-199, 6-Chloro-3-((1-(2-cyclopropyloxazole-5-carbonyl)-4-hydroxypiperidin-4-yl)methyl)-7-(2,3-dihydrobenzofuran-6-yl)-3,7-dihydro-4H-pyrrolo[2,3-d]pyrimidin-4-One] | Comparable results |  | 
6 | CC(C)C[C@@H](C=O)NC(=O)[C@H](CC(C)C)NC(=O)[C@H](CC(C)C)NC(=O)OCc1ccccc1 [MG132, reference compound] (Cbz-Leu-Leu-Leu-aldehyde) |  |  | K63/K48 polyubiquitinated HIF-1α (HIF-1α): increased polyubiquitination
7 | CNC(=O)c1cc(Oc2ccc(NC(=O)Nc3ccc(Cl)c(C(F)(F)F)c3)cc2)ccn1 [Sorafenib, reference compound] |  |  | tumour growth inhibition ([3]; highest AD-04 dose (subcutaneous infusion), Sorafenib oral positive control, day 15 post tumour implantation): 58%; tolerability, bodyweight of tumour-bearing mice ([3]; mouse, in vivo): no significant bodyweight loss
8 | CCOc1cc(C(C)(C)C)ccc1C1=N[C@@](C)(c2ccc(Cl)cc2)[C@@](C)(c2ccc(Cl)cc2)N1C(=O)N1CCN(CCCS(C)(=O)=O)CC1 [RG7112] |  | not able to modulate | 
9 | CC(C)(C)C[C@@H]1N[C@@H](C(=O)N[C@H]2CC[C@H](O)CC2)[C@H](c2cccc(Cl)c2F)[C@]12C(=O)Nc1cc(Cl)ccc12 [SAR405838] |  | not able to modulate | 
10 | O=C(c1cnc(C2CC2)o1)N1CCC(O)(Cn2cnc3c(cc(Cl)n3-c3ccc4c(c3)CCO4)c2=O)CC1 [ADC-160, 6-Chloro-3-((1-(2-cyclopropyloxazole-5-carbonyl)-4-hydroxypiperidin-4-yl)methyl)-7-(2,3-dihydrobenzofuran-5-yl)-3,7-dihydro-4H-pyrrolo[2,3-d]pyrimidin-4-One] | Comparable results |  | 
